Reference: ChEMBL document CHEMBL4138146, “A Schmidt rearrangement-mediated synthesis of novel tetrahydro-benzo[1,4]diazepin-5-ones as potential anticancer and antiprotozoal agents” (Eur J Med Chem, 2017)

Experiments:
Assay type in all cases: functional
[1] = system: MDA-MB-435; assay: Growth inhibition of human MDA-MB-435 cells assessed as cell growth at 10^-8 M incubated for 48 hrs by sulforhodamine B assay relative to control; details: MDA-MB-435, 48 h, read-out: Activity
[2] = system: SK-MEL-2; assay: Growth inhibition of human SK-MEL-2 cells assessed as cell growth at 10^-6 M incubated for 48 hrs by sulforhodamine B assay relative to control; details: SK-MEL-2, 48 h, read-out: Activity
[3] = system: SK-OV-3; assay: Growth inhibition of human SKOV3 cells assessed as cell growth at 10^-8 M incubated for 48 hrs by sulforhodamine B assay relative to control; details: SK-OV-3, 48 h, read-out: Activity
[4] = system: HOP-92; assay: Growth inhibition of human HOP92 cells assessed as cell growth at 10^-5 M incubated for 48 hrs by sulforhodamine B assay relative to control; details: HOP-92, 48 h, read-out: Activity
[5] = system: SF-295; assay: Growth inhibition of human SF295 cells assessed as cell growth at 10^-4 M incubated for 48 hrs by sulforhodamine B assay relative to control; details: SF-295, 48 h, read-out: Activity
[6] = system: HCC 2998; assay: Growth inhibition of human HCC2998 cells assessed as cell growth at 10^-5 M incubated for 48 hrs by sulforhodamine B assay relative to control; details: HCC 2998, 48 h, read-out: Activity
[7] = system: Malme-3M; assay: Growth inhibition of human MALME-3M cells assessed as cell growth at 10^-6 M incubated for 48 hrs by sulforhodamine B assay relative to control; details: read-out: Activity
[8] = system: MDA-MB-231; assay: Growth inhibition of human MDA-MB-231 cells assessed as cell growth at 10^-8 M incubated for 48 hrs by sulforhodamine B assay relative to control; details: MDA-MB-231, 48 h, read-out: Activity
[9] = system: A498; assay: Growth inhibition of human A498 cells assessed as cell growth at 10^-8 M incubated for 48 hrs by sulforhodamine B assay relative to control; details: A498, 48 h, read-out: Activity
[10] = system: HT-29; assay: Growth inhibition of human HT-29 cells assessed as cell growth at 10^-6 M incubated for 48 hrs by sulforhodamine B assay relative to control; details: HT-29, 48 h, read-out: Activity
[11] = system: NCI/ADR-RES; assay: Growth inhibition of human NCI/ADR-RES cells assessed as cell growth at 10^-6 M incubated for 48 hrs by sulforhodamine B assay relative to control; details: read-out: Activity
[12] = system: SF-268; assay: Growth inhibition of human SF268 cells assessed as cell growth at 10^-6 M incubated for 48 hrs by sulforhodamine B assay relative to control; details: SF-268, 48 h, read-out: Activity
[13] = system: MDA-MB-231; assay: Growth inhibition of human MDA-MB-231 cells assessed as cell growth at 10^-7 M incubated for 48 hrs by sulforhodamine B assay relative to control; details: MDA-MB-231, 48 h, read-out: Activity
[14] = system: EKVX; assay: Growth inhibition of human EKVX cells assessed as cell growth at 10^-5 M incubated for 48 hrs by sulforhodamine B assay relative to control; details: read-out: Activity
[15] = system: RPMI-8226; assay: Growth inhibition of human RPMI8226 cells assessed as cell growth at 10^-4 M incubated for 48 hrs by sulforhodamine B assay relative to control; details: RPMI-8226, 48 h, read-out: Activity
[16] = system: NCI-H23; assay: Growth inhibition of human NCI-H23 cells assessed as cell growth at 10^-5 M incubated for 48 hrs by sulforhodamine B assay relative to control; details: NCI-H23, 48 h, read-out: Activity
[17] = system: CCRF-CEM; assay: Growth inhibition of human CCRF-CEM cells assessed as cell growth at 10^-6 M incubated for 48 hrs by sulforhodamine B assay relative to control; details: read-out: Activity
[18] = system: SK-MEL-5; assay: Growth inhibition of human SK-MEL-5 cells assessed as cell growth at 10^-6 M incubated for 48 hrs by sulforhodamine B assay relative to control; details: SK-MEL-5, 48 h, read-out: Activity
[19] = system: NCI-H522; assay: Growth inhibition of human NCI-H522 cells assessed as cell growth at 10^-6 M incubated for 48 hrs by sulforhodamine B assay relative to control; details: NCI-H522, 48 h, read-out: Activity
[20] = system: SK-MEL-2; assay: Growth inhibition of human SK-MEL-2 cells assessed as cell growth at 10^-5 M incubated for 48 hrs by sulforhodamine B assay relative to control; details: SK-MEL-2, 48 h, read-out: Activity
[21] = system: MDA-MB-468; assay: Growth inhibition of human MDA-MB-468 cells assessed as cell growth at 10^-5 M incubated for 48 hrs by sulforhodamine B assay relative to control; details: MDA-MB-468, 48 h, read-out: Activity
[22] = system: HOP-62; assay: Growth inhibition of human HOP62 cells assessed as cell growth at 10^-8 M incubated for 48 hrs by sulforhodamine B assay relative to control; details: HOP-62, 48 h, read-out: Activity
[23] = system: RPMI-8226; assay: Growth inhibition of human RPMI8226 cells assessed as cell growth at 10^-5 M incubated for 48 hrs by sulforhodamine B assay relative to control; details: RPMI-8226, 48 h, read-out: Activity
[24] = system: TK-10; assay: Growth inhibition of human TK10 cells assessed as cell growth at 10^-5 M incubated for 48 hrs by sulforhodamine B assay relative to control; details: TK-10, 48 h, read-out: Activity
[25] = system: HCT-15; assay: Growth inhibition of human HCT15 cells assessed as cell growth at 10^-7 M incubated for 48 hrs by sulforhodamine B assay relative to control; details: HCT-15, 48 h, read-out: Activity
[26] = system: RXF 393; assay: Growth inhibition of human RXF393 cells assessed as cell growth at 10^-4 M incubated for 48 hrs by sulforhodamine B assay relative to control; details: RXF 393, 48 h, read-out: Activity
[27] = system: MOLT-4; assay: Growth inhibition of human MOLT4 cells assessed as cell growth at 10^-7 M incubated for 48 hrs by sulforhodamine B assay relative to control; details: MOLT-4, 48 h, read-out: Activity
[28] = system: MOLT-4; assay: Growth inhibition of human MOLT4 cells assessed as cell growth at 10^-4 M incubated for 48 hrs by sulforhodamine B assay relative to control; details: MOLT-4, 48 h, read-out: Activity
[29] = system: DU-145; assay: Growth inhibition of human DU145 cells assessed as cell growth at 10^-5 M incubated for 48 hrs by sulforhodamine B assay relative to control; details: DU-145, 48 h, read-out: Activity
[30] = system: ACHN; assay: Growth inhibition of human ACHN cells assessed as cell growth at 10^-6 M incubated for 48 hrs by sulforhodamine B assay relative to control; details: read-out: Activity
[31] = system: DU-145; assay: Growth inhibition of human DU145 cells assessed as cell growth at 10^-6 M incubated for 48 hrs by sulforhodamine B assay relative to control; details: DU-145, 48 h, read-out: Activity
[32] = system: OVCAR-4; assay: Growth inhibition of human OVCAR4 cells assessed as cell growth at 10^-5 M incubated for 48 hrs by sulforhodamine B assay relative to control; details: OVCAR-4, 48 h, read-out: Activity
[33] = system: ACHN; assay: Growth inhibition of human ACHN cells assessed as cell growth at 10^-8 M incubated for 48 hrs by sulforhodamine B assay relative to control; details: read-out: Activity

CCCCOc1nc2ccccc2cc1C1CNC(=O)c2ccccc2N1 (stereo not drawn)
growth at 0.01 µM [1]: 95% | growth at 1 µM [2]: 86% | growth at 0.01 µM [3]: 88% | growth at 10 µM [4]: 21% | growth at 100 µM [5]: -69% | growth at 10 µM [6]: 15% | growth at 1 µM [7]: 62% | growth at 0.01 µM [8]: 98% | growth at 0.01 µM [9]: 82% | growth at 1 µM [10]: 98% | growth at 1 µM [11]: 70% | growth at 1 µM [12]: 80% | growth at 0.1 µM [13]: 96% | growth at 10 µM [14]: 31% | growth at 100 µM [15]: -14% | growth at 10 µM [16]: 33% | growth at 1 µM [17]: 85% | growth at 1 µM [18]: 73% | growth at 1 µM [19]: 65% | growth at 10 µM [20]: 33% | growth at 10 µM [21]: -10% | growth at 0.01 µM [22]: 93% | growth at 10 µM [23]: 9% | growth at 10 µM [24]: 31% | growth at 0.1 µM [25]: 98% | growth at 100 µM [26]: -58% | growth at 0.1 µM [27]: 94% | growth at 100 µM [28]: -37% | growth at 10 µM [29]: 5% | growth at 1 µM [30]: 91% | growth at 1 µM [31]: 95% | growth at 10 µM [32]: 37% | growth at 0.01 µM [33]: 103%
